pIC50: −log10 of the molar value.
Tested on: 556581-035-R-J1-PDC complex spheroid viability
Experiment: Anticancer human tumor 556581-035-R-J1-PDC patient-derived ovarian carcinoma cell line growth inhibition
Conditions: for pIC50: curve of first compound; for viability, T/C: stronger effect = lower value
From the text: Multicellular complex tumor spheroid response to LSD1 Inhibitor Iadademstat in combination with a variety of drugs and investigational agents in selected tumor cell lines
The current study was undertaken to assess response to LSD1 inhibitors in combination with standard-of-care drugs and investigational agents in solid tumor complex spheroid models as well as in the K-562 leukemia. Complex spheroids include a stromal component modeled by human endothelial cells (HUVEC) and fibroblasts modeled by human mesenchymal stem cells (MSCs). The concentration ranges selected for each drug and investigational agent were based upon clinically achievable concentrations if the clinical Cmax of the agent was known.
Compounds. The drugs and investigational agents used in this study are listed on Table 1. All of the agents used, including staurosporine (NSC755774) and gemcitabine (NSC613327), were obtained from the Developmental Therapeutics Program, NCI. FDA-approved anticancer drugs are available from the NCI at http://dtp.nci.nih.gov/branches/dscb/oncology_drugset_explanation.html. Drugs and investigational agents were >95% pure by proton nuclear magnetic resonance (NMR) and liquid chromatography/mass spectrometry (LC/MS). Stock solutions were prepared at 400x in DMSO, stored at -70 degrees C, and diluted in fresh medium prior to their use. The final concentration of DMSO in cell culture wells never exceeded 0.25% (v/v). The FDA-approved anticancer drug set is available from the Developmental Therapeutics Program at https://dtp.cancer.gov/organization/dscb/obtaining/available_plates.htm. All drugs and investigational agents were tested over a range starting from a high concentration at or near the clinical Cmax and decreasing in half-log increments. If the clinical Cmax for an agent had not been determined, the highest concentration tested was 10 microM.
Cell Lines. The patient-derived cancer cell (PDC) lines: 292921-168-R-J2-PDC, K24384-001-R-PDC, and 521955-158-R2-J5-PDC pancreatic carcinomas, 556581-035-R-J1 ovarian carcinoma, 324938-238-R-J1-PDC, 855422-203-R-J1-PDC and 883617-216-R-J1-PDC urothelial bladder carcinomas, 743489-274-T-PDC renal cell carcinoma, 138582-R-J1 Merkel cell tumor, K60290-347-R-J1 and K57222-313-R-J1-PDC glioblastomas, 653999-131-R-J2-PDC, LG0703-F948-PDC, and 349418-098-R-PDC non-small cell lung carcinomas, 885512-296-R-J2-PDC, 171881-019-R-J1-PDC breast carcinomas and 186277-243-T-J2-PDC and 233499-124-R-J2-PDC colon carcinomas were obtained from the NCI Patient-Derived Models Repository (PDMR, https://pdmr.cancer.gov). The established cell lines NCI/ADR-RES (RRID:CVCL_14520 and OVCAR-5 (RRID:CVCL_1628) ovarian carcinomas, 786-O (RRID:CVCL_1051) and A498 (RRID:CVCL_A498) renal cell carcinoma, NCI-H211 (ATCC, cat. CRL-5824; RRID:CVCL_1529), NCI-H196 (ATCC, cat. CRL-5823, RRID:CVCL_1509), SW 1271 (ATCC, cat. CRL-2177, RRID:CVCL_1716) and NCI-H1876 (ATCC, cat. CRL-5902, RRID:CVCL_1503) small cell lung carcinomas, MDA-MB-231 (RRID:CVCL_0062) and MDA-MB-468 (RRID:CVCL_0419)breast carcinomas (10-12). Pooled donor human umbilical vein endothelial cells (HUVEC, Lonza, cat. CC-2519) and human mesenchymal stem cells (hMSC, Lonza, cat. PT-2501) were purchased from Lonza (Walkersville, MD).
Cell Culture. All cells were maintained in an incubator at 37 degrees C and 5% CO2 with 95% humidity. The PDC lines were cultured according to standard operating procedures established by the NCI PDMR (https://pdmr.cancer.gov). Briefly all PDCs were thawed and cultured in Matrigel-coated flasks prepared with a working solution of 1X Ham's F-12 nutrient mix, without supplementation (Invitrogen, Waltham, MA, cat. 11765054), 100 U/mL penicillin-streptomycin (Invitrogen, cat. 15140122), and 2.5% Matrigel (Corning Inc., Corning, NY, cat. 354248) for the first three passages. […]

[1] = second compound 0.1 µM, first compound 0.000949 µM
[2] = second compound 0.1 µM, first compound 0.003 µM
[3] = second compound 0.1 µM, first compound 0.00949 µM
[4] = second compound 0.1 µM, first compound 0.03 µM
[5] = second compound 0.1 µM, first compound 0.0949 µM
[6] = second compound 0.1 µM, first compound 0.3 µM
[7] = second compound 0.316 µM, first compound 0.000949 µM
[8] = second compound 0.316 µM, first compound 0.003 µM
[9] = second compound 0.316 µM, first compound 0.00949 µM
[10] = second compound 0.316 µM, first compound 0.03 µM
[11] = second compound 0.316 µM, first compound 0.0949 µM
[12] = second compound 0.316 µM, first compound 0.3 µM
[13] = second compound 1 µM, first compound 0.000949 µM
[14] = second compound 1 µM, first compound 0.003 µM
[15] = second compound 1 µM, first compound 0.00949 µM
[16] = second compound 1 µM, first compound 0.03 µM
[17] = second compound 1 µM, first compound 0.0949 µM
[18] = second compound 1 µM, first compound 0.3 µM
[19] = second compound 3.16 µM, first compound 0.000949 µM
[20] = second compound 3.16 µM, first compound 0.003 µM
[21] = second compound 3.16 µM, first compound 0.00949 µM
[22] = second compound 3.16 µM, first compound 0.03 µM
[23] = second compound 3.16 µM, first compound 0.0949 µM
[24] = second compound 3.16 µM, first compound 0.3 µM
[25] = second compound 10 µM, first compound 0.000949 µM
[26] = second compound 10 µM, first compound 0.003 µM
[27] = second compound 10 µM, first compound 0.00949 µM
[28] = second compound 10 µM, first compound 0.03 µM
[29] = second compound 10 µM, first compound 0.0949 µM
[30] = second compound 10 µM, first compound 0.3 µM
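Note: spheroids exposed to agents for seven days.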
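Throughout, for viability, T/C: 100% = DMSO vehicle control wells.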

CCc1c2c(nc3ccc(O)cc13)-c1cc3c(c(=O)n1C2)COC(=O)[C@]3(O)CC + NC1CC1c1ccc(-c2cccc(O)c2)cc1
pIC50 (second compound 0.1 µM): > 9.02 | pIC50 (second compound 0.316 µM): > 9.02 | pIC50 (second compound 1 µM): > 9.02 | pIC50 (second compound 3.16 µM): > 9.02 | pIC50 (second compound 10 µM): > 9.02 | viability, T/C [1]: 14.6% | viability, T/C [2]: 11% | viability, T/C [3]: 0.89% | viability, T/C [4]: 0.24% | viability, T/C [5]: 0.2% | viability, T/C [6]: 0.32% | viability, T/C [7]: 15.4% | viability, T/C [8]: 11.4% | viability, T/C [9]: 0.92% | viability, T/C [10]: 0.23% | viability, T/C [11]: 0.17% | viability, T/C [12]: 0.28% | viability, T/C [13]: 15.4% | viability, T/C [14]: 12.1% | viability, T/C [15]: 1.74% | viability, T/C [16]: 0.23% | viability, T/C [17]: 0.19% | viability, T/C [18]: 0.27% | viability, T/C [19]: 13.8% | viability, T/C [20]: 11.7% | viability, T/C [21]: 1.62% | viability, T/C [22]: 0.26% | viability, T/C [23]: 0.27% | viability, T/C [24]: 0.73% | viability, T/C [25]: 14.4% | viability, T/C [26]: 10.7% | viability, T/C [27]: 1.64% | viability, T/C [28]: 0.89% | viability, T/C [29]: 0.3% | viability, T/C [30]: 0.37%

Nc1ccn(C2OC(CO)C(O)C2(F)F)c(=O)n1 (stereo not given) + NC1CC1c1ccc(-c2cccc(O)c2)cc1
pIC50 (second compound 0.1 µM): 8.88 | pIC50 (second compound 0.316 µM): 8.85 | pIC50 (second compound 1 µM): 8.71 | pIC50 (second compound 3.16 µM): 8.76 | pIC50 (second compound 10 µM): 8.74 | viability, T/C [1]: 58.8% | viability, T/C [2]: 28.2% | viability, T/C [3]: 22.4% | viability, T/C [4]: 26.8% | viability, T/C [5]: 29.3% | viability, T/C [6]: 27% | viability, T/C [7]: 60.1% | viability, T/C [8]: 30.7% | viability, T/C [9]: 24.3% | viability, T/C [10]: 25% | viability, T/C [11]: 29.3% | viability, T/C [12]: 27.1% | viability, T/C [13]: 74% | viability, T/C [14]: 36.5% | viability, T/C [15]: 24.2% | viability, T/C [16]: 25.4% | viability, T/C [17]: 29.9% | viability, T/C [18]: 22.9% | viability, T/C [19]: 71% | viability, T/C [20]: 31.3% | viability, T/C [21]: 28.9% | viability, T/C [22]: 26.5% | viability, T/C [23]: 28.5% | viability, T/C [24]: 29% | viability, T/C [25]: 67.2% | viability, T/C [26]: 37.3% | viability, T/C [27]: 34.1% | viability, T/C [28]: 29.8% | viability, T/C [29]: 37.1% | viability, T/C [30]: 34.1%

O=C(c1cc(Cc2n[nH]c(=O)c3ccccc23)ccc1F)N1CCN(C(=O)C2CC2)CC1 + NC1CC1c1ccc(-c2cccc(O)c2)cc1
pIC50 (second compound 0.1 µM): < 5.00 | pIC50 (second compound 0.316 µM): < 5.00 | pIC50 (second compound 1 µM): < 5.00 | pIC50 (second compound 3.16 µM): < 5.00 | pIC50 (second compound 10 µM): 5.03 | viability, T/C (second compound 0.1 µM, first compound 0.0316 µM): 86.1% | viability, T/C (second compound 0.1 µM, first compound 0.1 µM): 86.2% | viability, T/C (second compound 0.1 µM, first compound 0.316 µM): 93.4% | viability, T/C (second compound 0.1 µM, first compound 1 µM): 76.6% | viability, T/C (second compound 0.1 µM, first compound 3.16 µM): 77.2% | viability, T/C (second compound 0.1 µM, first compound 10 µM): 63.4% | viability, T/C (second compound 0.316 µM, first compound 0.0316 µM): 92.3% | viability, T/C (second compound 0.316 µM, first compound 0.1 µM): 83.2% | viability, T/C (second compound 0.316 µM, first compound 0.316 µM): 74.8% | viability, T/C (second compound 0.316 µM, first compound 1 µM): 90.7% | viability, T/C (second compound 0.316 µM, first compound 3.16 µM): 72.2% | viability, T/C (second compound 0.316 µM, first compound 10 µM): 67.5% | viability, T/C (second compound 1 µM, first compound 0.0316 µM): 86.8% | viability, T/C (second compound 1 µM, first compound 0.1 µM): 83.5% | viability, T/C (second compound 1 µM, first compound 0.316 µM): 79.3% | viability, T/C (second compound 1 µM, first compound 1 µM): 69.9% | viability, T/C (second compound 1 µM, first compound 3.16 µM): 61.5% | viability, T/C (second compound 1 µM, first compound 10 µM): 58.8% | viability, T/C (second compound 3.16 µM, first compound 0.0316 µM): 84.4% | viability, T/C (second compound 3.16 µM, first compound 0.1 µM): 80.2% | viability, T/C (second compound 3.16 µM, first compound 0.316 µM): 84.9% | viability, T/C (second compound 3.16 µM, first compound 1 µM): 79.5% | viability, T/C (second compound 3.16 µM, first compound 3.16 µM): 61% | viability, T/C (second compound 3.16 µM, first compound 10 µM): 57.4% | viability, T/C (second compound 10 µM, first compound 0.0316 µM): 79.1% | viability, T/C (second compound 10 µM, first compound 0.1 µM): 76% | viability, T/C (second compound 10 µM, first compound 0.316 µM): 79.2% | viability, T/C (second compound 10 µM, first compound 1 µM): 70.6% | viability, T/C (second compound 10 µM, first compound 3.16 µM): 61.6% | viability, T/C (second compound 10 µM, first compound 10 µM): 49.4%

Reference: PubChem BioAssay AID1918938 (Molecular Pharmacology Branch, DTP, NCI, 2023)
